Measurements reported in ChEMBL document CHEMBL3046324, “Molecular recognition of long chain fatty acids by peroxisome proliferator-activated receptor” (Med Chem Res, 2009).

Assays:
[1] = molecular target: T1, Peroxisome proliferator-activated receptor alpha (Homo sapiens, UniProt Q07869); test: Inhibition of PPAR-alpha (unknown origin) by SPA assay
T1 sequence (Q07869 whole entry): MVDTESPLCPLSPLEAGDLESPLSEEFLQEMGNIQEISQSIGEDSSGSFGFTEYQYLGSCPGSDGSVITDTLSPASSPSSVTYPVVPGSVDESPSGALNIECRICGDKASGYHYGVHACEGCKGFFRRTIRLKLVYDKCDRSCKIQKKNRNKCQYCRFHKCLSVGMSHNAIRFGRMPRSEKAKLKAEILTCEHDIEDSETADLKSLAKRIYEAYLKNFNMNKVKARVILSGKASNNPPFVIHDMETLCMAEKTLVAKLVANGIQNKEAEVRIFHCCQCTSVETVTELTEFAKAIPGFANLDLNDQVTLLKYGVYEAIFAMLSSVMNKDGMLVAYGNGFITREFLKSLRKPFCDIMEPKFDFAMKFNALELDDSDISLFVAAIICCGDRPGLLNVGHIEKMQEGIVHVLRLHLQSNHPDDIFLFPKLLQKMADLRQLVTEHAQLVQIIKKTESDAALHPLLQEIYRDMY

[2] = molecular target: T1, Peroxisome proliferator-activated receptor alpha; test: Binding affinity to PPAR-alpha (unknown origin) by fluorescence-based assay

| SMILES | IC50 [1] [nM] | Kd [2] [nM] |
| --- | --- | --- |
| CCCCCCCC/C=C\CCCCCCCC(=O)O [OLEIC ACID] | 600 |  |
| CCCCCC/C=C\CCCCCCCC(=O)O [PALMITOLEIC ACID] | 1700 |  |
| CCCCC/C=C\C/C=C\C/C=C\CCCCCCC(=O)O [DIHOMO-GAMMA-LINOLENIC ACID] | 1400 |  |
| CC/C=C\C/C=C\C/C=C\C/C=C\C/C=C\CCCC(=O)O [ICOSAPENT] | 1100 |  |
| CC/C=C\C/C=C\C/C=C\CCCCCCCC(=O)O [LINOLENIC ACID] | 1200 | 7.9 |
| CCCCC/C=C\C/C=C\C/C=C\CCCCC(=O)O [GAMOLENIC ACID] | 270 |  |
| CCCCC/C=C\C/C=C\C/C=C\C/C=C\CCCC(=O)O [ARACHIDONIC ACID] | 1200 |  |
| CCCCCCCC/C=C\CCCCCCCCCCCC(=O)O [ERUCIC ACID] | > 30000 |  |
| CCCCC/C=C\C/C=C\CCCCCCCC(=O)O [LINOLEIC ACID] | 1100 | 4.8 |
